US11702422B2, “Imidazopyridazines as modulators of IL-17” (Janssen Pharmaceutica NV, priority 2020, dated 2023)

Experiments:
[1] = tested on: IL-17A-induced G-CSF production in human normal keratinocyte (NHK); experiment: NHK Assay: IL-17A-induced G-CSF production in human normal keratinocytes; format: cell-based; settings: adult normal human keratinocytes, IL-17A 5 ng/mL, 24 h, simple average if tested more than once
How it was run: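 Titrated compound plus recombinant human IL-17A (pre-incubated 1 h, rt) were applied to adult human keratinocytes at 5 ng/mL cytokine, 0.2% DMSO. Cultures ran 24 h at 37° C, and supernatant G-CSF was measured by HTRF to derive IC50.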

[2] = biological target: IL-17A(FLAG-Tagged): IL-17RA(His-Tagged) (Homo sapiens, UniProt Q16552, K93Q); experiment: IL-17A(FLAG-Tagged): IL-17RA(His-Tagged) Binding Disruption Eu-HTRF Assay; settings: IL-17A/IL-17RA binding disruption, simple average if tested more than once
Sequence of UniProt Q16552 (Q16552 with tags, fused parts or gaps K93Q): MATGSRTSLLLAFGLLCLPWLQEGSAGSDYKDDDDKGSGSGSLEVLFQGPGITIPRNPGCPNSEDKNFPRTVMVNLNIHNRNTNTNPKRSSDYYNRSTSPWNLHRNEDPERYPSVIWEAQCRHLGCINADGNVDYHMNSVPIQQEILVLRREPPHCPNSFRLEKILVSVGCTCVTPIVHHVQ
How it was run: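 IC50 comes from a one-site competition fit of the HTRF 665/620 nm ratio. Compound dilutions (2-fold, 22 points) were held 1 h rt with FLAG-tagged IL-17A dimer, then His-tagged IL-17RA plus Eu-cryptate anti-FLAG and D2 anti-His antibodies were added for 2 h rt.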

| Structure (SMILES) | IC50 [2] [nM] | IC50 [1] [nM] | IC50 ([1]; Homo sapiens, Keratinocyte) [nM] |
| --- | --- | --- | --- |
| O=C(CCC(F)(F)F)N[C@@H](c1cnn2cc([C@@H](NC(=O)c3cncc(F)c3)C3CCC(F)(F)CC3)nc2c1)C1CC1 [Example 451, N—((S)-(7-((R)-Cyclopropyl(4,4,4-trifluorobutanamido)methyl)imidazo[1,2-b]pyridazin-2-yl)(4,4-difluorocyclohexyl)methyl)-5-fluoronicotinamide] | 120 |  | 830 |
| O=C(CCC(F)(F)F)N[C@@H](c1cnn2cc([C@@H](NC(=O)c3cccnn3)C3CCC(F)(F)CC3)nc2c1)C1CC1 [Example 458, N—((S)-(7-((R)-Cyclopropyl(4,4,4-trifluorobutanamido)methyl)imidazo[1,2-b]pyridazin-2-yl)(4,4-difluorocyclohexyl)methyl)pyridazine-3-carboxamide] | 7800 |  | > 20000 |
| O=C(CCC(F)(F)F)N[C@@H](c1cnn2cc([C@@H](NC(=O)[C@H]3C[C@@H]3C(F)F)C3CCC(F)(F)CC3)nc2c1)C1CC1 (single isomer, unassigned) [Example 361] | 210 |  | 1700 |
| Cc1nonc1C(=O)N[C@H](c1cn2ncc([C@H](NC(=O)CC3CCC3)C3CC3)cc2n1)C1CCC(F)(F)CC1 [Example 247, N—((S)-(7-((R)-(2-Cyclobutylacetamido)(cyclopropyl)methyl)imidazo[1,2-b]pyridazin-2-yl)(4,4-difluorocyclohexyl)methyl)-4-methyl-1,2,5-oxadiazole-3-carboxamide] | 62 |  | 190 |
| CC(C)n1nccc1C(=O)N[C@H](c1cn2ncc(C(NC(=O)CC(C)(C)O)C3CC3)cc2n1)C1CCC(F)(F)CC1 (single isomer, unassigned) [Example 136, N—((S)-(7-((R*)-Cyclopropyl(3-hydroxy-3-methylbutanamido)methyl)imidazo[1,2-b]pyridazin-2-yl)(4,4-difluorocyclohexyl)methyl)-1-isopropyl-1H-pyrazole-5-carboxamide] | 400 | 790 |  |
| O=C(CC(C(F)(F)F)C(F)(F)F)NC(c1cnn2cc([C@@H](NC(=O)c3ccccc3)C3CCC(F)(F)CC3)nc2c1)C1CC1 (single isomer, unassigned) [Example 17, N—((S)-(7-((S*)-Cyclopropyl(4,4,4-trifluoro-3-(trifluoromethyl)butanamido)methyl)imidazo[1,2-b]pyridazin-2-yl)(4,4-difluorocyclohexyl)methyl)benzamide] | 1300 | 1200 |  |
| O=C(CCC(F)(F)F)N[C@@H](c1cnn2cc([C@@H](NC(=O)[C@@H]3C[C@@H]3C(F)F)C3CCC(F)(F)CC3)nc2c1)C1CC1 (relative stereo) [Example 358, (1R*,2S*)—N—((S)-(7-((R*)-Cyclopropyl(4,4,4-trifluorobutanamido)methyl)imidazo[1,2-b]pyridazin-2-yl)(4,4-difluorocyclohexyl)methyl)-2-(difluoromethyl)cyclopropane-1-carboxamide] | 450 |  | 2100 |
| O=C(CCC(F)(F)F)N[C@@H](c1cnn2cc([C@@H](NC(=O)c3cnn(CCOC(F)F)n3)C3CCC(F)(F)CC3)nc2c1)C1CC1 [Example 35, N—((S)-(7-((R)-Cyclopropyl(4,4,4-trifluorobutanamido)methyl)imidazo[1,2-b]pyridazin-2-yl)(4,4-difluorocyclohexyl)methyl)-2-(2-(difluoromethoxy)ethyl)-2H-1,2,3-triazole-4-carboxamide] | 120 |  | 200 |
| CC(C)n1nccc1C(=O)N[C@@H](COC(C)(C)C(F)(F)F)c1cn2ncc([C@H](NC(=O)CC3CC(F)(F)C3)C3CC3)cc2n1 [Example 320, N—((R)-1-(7-((R)-Cyclopropyl(2-(3,3-difluorocyclobutyl)acetamido)methyl)imidazo[1,2-b]pyridazin-2-yl)-2-((1,1,1-trifluoro-2-methylpropan-2-yl)oxy)ethyl)-1-isopropyl-1H-pyrazole-5-carboxamide] | 74 |  | 62 |
| O=C(CCC(F)F)N[C@@H](c1cnn2cc([C@@H](NC(=O)c3nonc3C3CC3)C3CCC(F)(F)CC3)nc2c1)C1CC1 [Example 288, 4-Cyclopropyl-N—((S)-(7-((R)-cyclopropyl(4,4-difluorobutanamido)methyl)imidazo[1,2-b]pyridazin-2-yl)(4,4-difluorocyclohexyl)methyl)-1,2,5-oxadiazole-3-carboxamide] | 71 |  | 200 |
| CC(C)c1nocc1C(=O)N[C@H](c1cn2ncc([C@H](NC(=O)CCC(F)(F)F)C3CC3)cc2n1)C1CCC(F)(F)CC1 [Example 76, N—((S)-(7-((R)-Cyclopropyl(4,4,4-trifluorobutanamido)methyl)imidazo[1,2-b]pyridazin-2-yl)(4,4-difluorocyclohexyl)methyl)-3-isopropylisoxazole-4-carboxamide] | 67 |  | 67 |
| Cc1nonc1C(=O)N[C@H](c1cn2ncc(C(NC(=O)C(F)(F)CC3CC3)C3(C#N)CC3)cc2n1)C1CCC(F)(F)CC1 (single isomer, unassigned) [Example 435, N—((S)-(7-((R*)-(1-Cyanocyclopropyl)(3-cyclopropyl-2,2-difluoropropanamido)methyl)imidazo[1,2-b]pyridazin-2-yl)(4,4-difluorocyclohexyl)methyl)-4-methyl-1,2,5-oxadiazole-3-carboxamide] | 3800 |  | > 20000 |

The remaining molecules from weak to strong by IC50 [2], led by results:

| IC50 [2] [nM] | Structure (SMILES) | IC50 [1] [nM] | IC50 ([1]; Homo sapiens, Keratinocyte) [nM] |
| --- | --- | --- | --- |
| 1500 | CC(C)n1nccc1C(=O)N[C@H](c1cn2ncc(C(CO)NC(=O)CC3CC(F)(F)C3)cc2n1)C1CCC(F)(F)CC1 (single isomer, unassigned) [Example 532, N—((S)-(7-((R*)-1-(2-(3,3-Difluorocyclobutyl)acetamido)-2-hydroxyethyl)imidazo[1,2-b]pyridazin-2-yl)(4,4-difluorocyclohexyl)methyl)-1-isopropyl-1H-pyrazole-5-carboxamide] | 2800 |  |
| 380 | [2H]C([2H])([2H])n1nccc1C(=O)N[C@H](c1cn2ncc([C@@H](NC(=O)CC3CC(F)(F)C3)C3CCC3)cc2n1)C1CCC(F)(F)CC1 (relative stereo) [Example 498, N—((S)-(7-((S*)-Cyclobutyl(2-(3,3-difluorocyclobutyl)acetamido)methyl)imidazo[1,2-b]pyridazin-2-yl)(4,4-difluorocyclohexyl)methyl)-1-methyl-d3)-1H-pyrazole-5-carboxamide] |  | 20000 |
| 210 | CC(C)n1nccc1C(=O)N[C@H](c1cn2ncc([C@H](NC(=O)CO[C@H](C)C(F)(F)F)C3CC3)cc2n1)C1CCC(F)(F)CC1 (single isomer, unassigned) [Example 311] |  | 330 |
| 180 | Cc1nonc1C(=O)N[C@H](c1cn2ncc([C@H](NC(=O)COC(F)(F)F)C3CC3)cc2n1)C1CCC(F)(F)CC1 [Example 277, N—((S)-(7-((R)-Cyclopropyl(2-(trifluoromethoxy)acetamido)methyl)imidazo[1,2-b]pyridazin-2-yl)(4,4-difluorocyclohexyl)methyl)-4-methyl-1,2,5-oxadiazole-3-carboxamide] |  | 690 |
| 140 | Cc1nonc1C(=O)N[C@H](c1cn2ncc([C@H](NC(=O)CC3(C(F)(F)F)CC3)C3CC3)cc2n1)C1CCC(F)(F)CC1 [Example 245, N—((S)-(7-((R)-Cyclopropyl(2-(1-(trifluoromethyl)cyclopropyl)acetamido)methyl)imidazo[1,2-b]pyridazin-2-yl)(4,4-difluorocyclohexyl)methyl)-4-methyl-1,2,5-oxadiazole-3-carboxamide] |  | 290 |
| 90 | O=C(CC1CC(F)(F)C1)NC(c1cnn2cc([C@@H](NC(=O)c3cnn(CC(F)(F)F)n3)C3CCC(F)(F)CC3)nc2c1)C1CC1 (stereo in doubt) [Example 28, N—((S)-(7-((R*)-Cyclopropyl(2-(3,3-difluorocyclobutyl)acetamido)methyl)imidazo[1,2-b]pyridazin-2-yl)(4,4-difluorocyclohexyl)methyl)-2-(2,2,2-trifluoroethyl)-2H-1,2,3-triazole-4-carboxamide] |  | 390 |
| 83 | Cc1nonc1C(=O)N[C@H](c1cn2ncc(C(C)NC(=O)CCC(F)(F)F)cc2n1)C1CCC(F)(F)CC1 (single isomer, unassigned) [Example 510, N—((S)-(4,4-Difluorocyclohexyl)(7-((S*)-1-(4,4,4-trifluorobutanamido)ethyl)imidazo[1,2-b]pyridazin-2-yl)methyl)-4-methyl-1,2,5-oxadiazole-3-carboxamide] | 440 |  |
| 80 | CC(C)Oc1cc(C(=O)N[C@H](c2cn3ncc([C@H](NC(=O)CCC(F)(F)F)C4CC4)cc3n2)C2CCC(F)(F)CC2)ccn1 [Example 175, N—((S)-(7-((R)-Cyclopropyl(4,4,4-trifluorobutanamido)methyl)imidazo[1,2-b]pyridazin-2-yl)(4,4-difluorocyclohexyl)methyl)-2-isopropoxyisonicotinamide] |  | 400 |
| 56 | Cc1nonc1C(=O)N[C@H](c1cn2ncc([C@H](NC(=O)CC3CC3(F)F)C3CC3)cc2n1)C1CCC(F)(F)CC1 (relative stereo) [Example 256] |  | 250 |
| 46 | O=C(CC1CC(F)(F)C1)NC(c1cnn2cc([C@@H](NC(=O)c3nonc3C3CC3)C3CCC(F)(F)CC3)nc2c1)C(F)F (single isomer, unassigned) [Example 517, 4-Cyclopropyl-N—((S)-(7-((S*)-1-(2-(3,3-difluorocyclobutyl)acetamido)-2,2-difluoroethyl)imidazo[1,2-b]pyridazin-2-yl)(4,4-difluorocyclohexyl)methyl)-1,2,5-oxadiazole-3-carboxamide] | 45 |  |
